The CheMixHub viscosity set
Where “and” joins values, the source holds several entries; their conditions need not be identical. Equal entries are not always repeated. ± gives the uncertainty stated by the source.

Assay: xn = mol fraction of the nth substance listed

Brc1ccccc1 + Cc1ccccc1C
101 kPa
Conditions	viscosity [mPa·s]
293.15 K, x1 = 0.114	0.795 ± 0.014
293.15 K, x1 = 0.2198	0.827 ± 0.014
293.15 K, x1 = 0.3257	0.862 ± 0.015
293.15 K, x1 = 0.4383	0.893 ± 0.015
293.15 K, x1 = 0.542	0.931 ± 0.016
293.15 K, x1 = 0.6615	0.962 ± 0.016
293.15 K, x1 = 0.7764	1 ± 0.017
293.15 K, x1 = 0.882	1.035 ± 0.017
298.15 K, x1 = 0.1101	0.728 ± 0.013
298.15 K, x1 = 0.2223	0.765 ± 0.013
298.15 K, x1 = 0.3227	0.795 ± 0.014
298.15 K, x1 = 0.4226	0.826 ± 0.014
298.15 K, x1 = 0.5207	0.863 ± 0.015
298.15 K, x1 = 0.6643	0.9 ± 0.015
298.15 K, x1 = 0.772	0.938 ± 0.016
298.15 K, x1 = 0.8925	0.969 ± 0.016
303.15 K, x1 = 0.117	0.667 ± 0.012
303.15 K, x1 = 0.2219	0.701 ± 0.013
303.15 K, x1 = 0.3366	0.734 ± 0.013
303.15 K, x1 = 0.4539	0.77 ± 0.014
303.15 K, x1 = 0.5398	0.8 ± 0.014
303.15 K, x1 = 0.6572	0.834 ± 0.014
303.15 K, x1 = 0.7877	0.876 ± 0.015
303.15 K, x1 = 0.9122	0.91 ± 0.016

COc1ccccc1O + Cc1ccccc1N
303.15 K, 101 kPa
Conditions	viscosity [mPa·s]
x2 = 0.1	4.73 ± 0.13
x2 = 0.2	4.93 ± 0.13
x2 = 0.3	5.2 ± 0.14
x2 = 0.34	5.22 ± 0.14
x2 = 0.36	5.19 ± 0.14
x2 = 0.4	5.17 ± 0.14
x2 = 0.5	5.12 ± 0.14
x2 = 0.6	4.82 ± 0.13
x2 = 0.7	4.38 ± 0.12
x2 = 0.8	4 ± 0.11
x2 = 0.9	3.58 ± 0.1

Brc1ccccc1 + ClC(Cl)(Cl)Cl
Conditions	viscosity [mPa·s]
298 K, 101.3 kPa, x2 = 0.1709	1.035 ± 0.013
298 K, 101.3 kPa, x2 = 0.3202	1.011 ± 0.012
298 K, 101.3 kPa, x2 = 0.5187	0.971 ± 0.011
298 K, 101.3 kPa, x2 = 0.6674	0.942 ± 0.01
298 K, 101.3 kPa, x2 = 0.8522	0.915 ± 0.009
303.15 K, 101 kPa, x1 = 0.092	0.727 ± 0.013
303.15 K, 101 kPa, x1 = 0.187	0.653 ± 0.011
303.15 K, 101 kPa, x1 = 0.283	0.624 ± 0.011
303.15 K, 101 kPa, x1 = 0.38	0.595 ± 0.011
303.15 K, 101 kPa, x1 = 0.479	0.619 ± 0.011
303.15 K, 101 kPa, x1 = 0.58	0.656 ± 0.012
303.15 K, 101 kPa, x1 = 0.682	0.7 ± 0.012
303.15 K, 101 kPa, x1 = 0.787	0.778 ± 0.013
303.15 K, 101 kPa, x1 = 0.892	0.881 ± 0.015
318 K, 101.3 kPa, x2 = 0.1581	0.8313 ± 0.03
318 K, 101.3 kPa, x2 = 0.3169	0.8147 ± 0.029
318 K, 101.3 kPa, x2 = 0.5212	0.7898 ± 0.029
318 K, 101.3 kPa, x2 = 0.6657	0.7758 ± 0.028
318 K, 101.3 kPa, x2 = 0.8618	0.76 ± 0.028

COC(=O)CC(=O)OC + ClC(Cl)(Cl)Cl
303.15 K, 101 kPa
Conditions	viscosity [mPa·s]
x1 = 0.0856	0.9503 ± 0.0094
x1 = 0.1747	1.064 ± 0.01
x1 = 0.2659	1.186 ± 0.012
x1 = 0.3608	1.295 ± 0.013
x1 = 0.4586	1.409 ± 0.014
x1 = 0.5599	1.52 ± 0.015
x1 = 0.6641	1.601 ± 0.016
x1 = 0.7723	1.687 ± 0.017
x1 = 0.8841	1.753 ± 0.017

Brc1ccccc1 + ClC(Cl)=C(Cl)Cl
303.15 K, 101 kPa
Conditions	viscosity [mPa·s]
x2 = 0.1026	0.978 ± 0.009
x2 = 0.1749	0.971 ± 0.009
x2 = 0.2799	0.96 ± 0.009
x2 = 0.3996	0.945 ± 0.009
x2 = 0.4574	0.933 ± 0.008
x2 = 0.5408	0.916 ± 0.008
x2 = 0.6276	0.894 ± 0.008
x2 = 0.7273	0.871 ± 0.008
x2 = 0.8585	0.84 ± 0.008
x2 = 0.9426	0.822 ± 0.008

COC(=O)CC(=O)OC + ClC(Cl)Cl
303.15 K, 101 kPa
Conditions	viscosity [mPa·s]
x1 = 0.0727	0.612 ± 0.0062
x1 = 0.1507	0.727 ± 0.0073
x1 = 0.2329	0.845 ± 0.0084
x1 = 0.3213	0.968 ± 0.0095
x1 = 0.415	1.092 ± 0.011
x1 = 0.5154	1.222 ± 0.012
x1 = 0.6231	1.354 ± 0.013
x1 = 0.7393	1.492 ± 0.015
x1 = 0.8644	1.64 ± 0.016

BrCCBr + ClCCCl
298.15 K, 101 kPa
Conditions	viscosity [mPa·s]
x2 = 0.175	1.421 ± 0.019
x2 = 0.3753	1.216 ± 0.016
x2 = 0.5066	1.117 ± 0.015
x2 = 0.6547	1.006 ± 0.013
x2 = 0.7793	0.9179 ± 0.012
x2 = 0.8501	0.8648 ± 0.011

Brc1ccccc1 + Clc1ccccc1
298.15 K, 101 kPa
Conditions	viscosity [mPa·s]
x2 = 0.299	0.934 ± 0.009
x2 = 0.512	0.86 ± 0.009
x2 = 0.676	0.823 ± 0.008
x2 = 0.828	0.774 ± 0.008

CC(F)(F)Cl + FC(F)Cl
Conditions	viscosity [mPa·s]
293.15 K, 101 kPa, x2 = 0.115	0.2343 ± 0.0064
293.15 K, 101 kPa, x2 = 0.331	0.2197 ± 0.006
293.15 K, 101 kPa, x2 = 0.54	0.2009 ± 0.0055
293.15 K, 101 kPa, x2 = 0.635	0.2028 ± 0.0055
293.15 K, 101 kPa, x2 = 0.913	0.177 ± 0.0048
293.25 K, 101 kPa, x2 = 0.438	0.2153 ± 0.0059
293.35 K, 101 kPa, x2 = 0.822	0.189 ± 0.0051
293.73 K, 101.13 kPa, x2 = 0.526	0.195 ± 0.0024
312.35 K, 101 kPa, x2 = 0.731	0.1511 ± 0.0041
312.55 K, 101 kPa, x2 = 0.115	0.1951 ± 0.0053
312.75 K, 101 kPa, x2 = 0.913	0.1394 ± 0.0038
312.85 K, 101 kPa, x2 = 0.635	0.1609 ± 0.0044
312.95 K, 101 kPa, x2 = 0.331	0.1754 ± 0.0048
312.95 K, 101 kPa, x2 = 0.54	0.1615 ± 0.0044
313.15 K, 101 kPa, x2 = 0.822	0.1495 ± 0.0041
313.25 K, 101 kPa, x2 = 0.438	0.1749 ± 0.0048

COc1ccccc1O + Nc1ccccc1
303.15 K, 101 kPa
Conditions	viscosity [mPa·s]
x2 = 0.1	4.74 ± 0.13
x2 = 0.2	4.9 ± 0.13
x2 = 0.3	5.11 ± 0.14
x2 = 0.35	5.15 ± 0.14
x2 = 0.4	5.23 ± 0.14
x2 = 0.45	5.12 ± 0.14
x2 = 0.5	5.09 ± 0.14
x2 = 0.55	4.94 ± 0.13
x2 = 0.6	4.86 ± 0.13
x2 = 0.7	4.58 ± 0.12
x2 = 0.8	4.23 ± 0.11
x2 = 0.9	3.61 ± 0.1

CSCC[C@H](N)C(=O)O + O
viscosity, 101 kPa
Conditions	293.15 K	298.15 K	303.15 K	308.15 K	313.15 K	318.15 K
x1 = 0.00045	1.011 ± 0.0092 mPa·s and 1.009 ± 0.012 mPa·s	0.8992 ± 0.0084 mPa·s and 0.8967 ± 0.01 mPa·s	0.8057 ± 0.0075 mPa·s and 0.8039 ± 0.0093 mPa·s	0.727 ± 0.0067 mPa·s and 0.7258 ± 0.0084 mPa·s	0.6602 ± 0.0061 mPa·s and 0.6603 ± 0.0077 mPa·s	0.6044 ± 0.0057 mPa·s
x1 = 0.0009	1.019 ± 0.0093 mPa·s and 1.016 ± 0.012 mPa·s	0.9063 ± 0.0084 mPa·s and 0.903 ± 0.01 mPa·s	0.8126 ± 0.0075 mPa·s and 0.8103 ± 0.0094 mPa·s	0.734 ± 0.0068 mPa·s and 0.7327 ± 0.0085 mPa·s	0.6671 ± 0.0062 mPa·s and 0.6678 ± 0.0078 mPa·s	–
x1 = 0.0013	1.023 ± 0.012 mPa·s	0.9098 ± 0.01 mPa·s	0.8169 ± 0.0095 mPa·s	0.7392 ± 0.0086 mPa·s	0.6743 ± 0.0079 mPa·s	–
x1 = 0.00135	–	0.9131 ± 0.0084 mPa·s	0.8195 ± 0.0076 mPa·s	0.7408 ± 0.0068 mPa·s	0.6735 ± 0.0062 mPa·s	0.6178 ± 0.0058 mPa·s
x1 = 0.001798	–	–	0.8264 ± 0.0076 mPa·s	0.7475 ± 0.0069 mPa·s	–	0.6244 ± 0.0058 mPa·s
x1 = 0.0018	–	0.9165 ± 0.011 mPa·s	0.8232 ± 0.0095 mPa·s	0.745 ± 0.0087 mPa·s	0.6815 ± 0.0079 mPa·s	–
x1 = 0.002247	1.039 ± 0.0094 mPa·s	0.9266 ± 0.0085 mPa·s	0.833 ± 0.0076 mPa·s	0.754 ± 0.0069 mPa·s	0.687 ± 0.0063 mPa·s	0.631 ± 0.0059 mPa·s
x1 = 0.00225	1.037 ± 0.012 mPa·s	0.9232 ± 0.011 mPa·s	0.8295 ± 0.0096 mPa·s	0.7524 ± 0.0087 mPa·s	0.688 ± 0.008 mPa·s	–
x1 = 0.00269	1.044 ± 0.012 mPa·s	0.9295 ± 0.011 mPa·s	0.8368 ± 0.0097 mPa·s	0.7588 ± 0.0088 mPa·s	0.6951 ± 0.0081 mPa·s	–
x1 = 0.002693	1.046 ± 0.0094 mPa·s	0.9335 ± 0.0086 mPa·s	0.8396 ± 0.0077 mPa·s	0.7607 ± 0.007 mPa·s	0.6936 ± 0.0063 mPa·s	0.6373 ± 0.0059 mPa·s
x1 = 0.00314	1.05 ± 0.012 mPa·s	0.936 ± 0.011 mPa·s	0.8435 ± 0.0098 mPa·s	0.7657 ± 0.0089 mPa·s	0.7019 ± 0.0082 mPa·s	–
x1 = 0.003143	1.053 ± 0.0095 mPa·s	0.9403 ± 0.0086 mPa·s	0.8465 ± 0.0077 mPa·s	0.7675 ± 0.007 mPa·s	0.6999 ± 0.0064 mPa·s	0.6436 ± 0.0059 mPa·s
x1 = 0.003588	1.06 ± 0.0095 mPa·s	0.9474 ± 0.0087 mPa·s	0.8535 ± 0.0078 mPa·s	0.7743 ± 0.0071 mPa·s	0.7063 ± 0.0064 mPa·s	0.6495 ± 0.006 mPa·s
x1 = 0.00359	1.057 ± 0.012 mPa·s	0.9426 ± 0.011 mPa·s	0.85 ± 0.0098 mPa·s	0.7724 ± 0.009 mPa·s	0.7087 ± 0.0083 mPa·s	–

Cc1ccc[n+](CCCO)c1.[Cl-] + O
viscosity [mPa·s], 100 kPa
Conditions	x1 = 0.001832	x1 = 0.002695	x1 = 0.003588	x1 = 0.005369	x1 = 0.007151	x1 = 0.008924
293.15 K	1.065 ± 0.022	1.09 ± 0.023	1.114 ± 0.023	1.16 ± 0.024	1.204 ± 0.025	1.246 ± 0.026
298.15 K	0.943 ± 0.02	0.965 ± 0.02	0.986 ± 0.021	1.025 ± 0.021	1.063 ± 0.022	1.1 ± 0.023
303.15 K	0.841 ± 0.018	0.86 ± 0.02	0.877 ± 0.018	0.912 ± 0.019	0.945 ± 0.02	0.976 ± 0.02
308.15 K	0.757 ± 0.016	0.773 ± 0.016	0.789 ± 0.016	0.819 ± 0.017	0.848 ± 0.018	0.876 ± 0.018
313.15 K	0.682 ± 0.014	0.696 ± 0.015	0.709 ± 0.015	0.735 ± 0.015	0.76 ± 0.02	0.784 ± 0.016
